Some test systems named below: SK-MEL-28 melanoma; A498 renal; T-47D breast; COLO 205 colon; MDA-N; SF-268 CNS; IGROV1 ovarian; SK-OV-3 ovarian; SF-295 CNS; U251 CNS.
Holding throughout (assay): NCI-60 cell line screen, 48 h

The record followed here is PubChem BioAssay (NCI).

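How tested: cells in 96-well plates exposed to compound for 48 hours at five concentrations. TGI: total growth inhibition.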 Where a SMILES comes first, the peptide text is derived from it. The star is where a group is joined. Cbz = O=C(OCc1ccccc1)*; NHNH2 = NN*

Consider `O=C(N/N=C/c1ccco1)c1cc(I)cc(I)c1O`, for which the TGI in the test on SK-MEL-28 melanoma is above 50 µM; in the test on A498 renal it was 32.8 µM; in the test with T-47D breast, above 50 µM; in the test with COLO 205 colon, 45.6 µM; with MDA-N it was above 50 µM; in the test with SF-268 CNS it was above 50 µM. The compound also returned a TGI in the test with IGROV1 ovarian above 50 µM.

On to `NC(=O)c1cc2ccccc2o/c1=N/O`, for which the TGI in the test with SK-MEL-28 melanoma, with T-47D breast, with COLO 205 colon, in the test on SK-OV-3 ovarian, in the test on MDA-N and with SF-295 CNS was above 100 µM each time. Further, the TGI with SF-268 CNS, in the test with U251 CNS and in the test with IGROV1 ovarian was above 100 µM throughout.

With `CNC(=O)N(CCC#N)[C@H]1CCCC[C@@H]1N(C(=O)NC)c1ccccc1`, the TGI in the test on SK-MEL-28 melanoma, in the test on T-47D breast, in the test on COLO 205 colon, with SK-OV-3 ovarian, in the test on MDA-N and in the test with SF-295 CNS was above 100 µM in each case. The TGI in the test with U251 CNS and with IGROV1 ovarian was above 100 µM throughout.

Regarding `O=C1C=CC(=O)c2c(O)c(NCCc3ccc(O)cc3)c(Cl)c(O)c21`, the TGI with T-47D breast, in the test with COLO 205 colon, with SK-OV-3 ovarian, with MDA-N, in the test with SF-295 CNS and in the test with SF-268 CNS was above 10 µM throughout. In addition, the TGI in the test with U251 CNS and in the test on IGROV1 ovarian was above 10 µM in each case.

Turning to `O=C1C=C(c2ccccc2)O/C1=C/C(=O)c1ccc(Cl)cc1`, the TGI in the test with SK-MEL-28 melanoma is 32.9 µM; with A498 renal, 75.4 µM; with COLO 205 colon, 30.1 µM; with SK-OV-3 ovarian it was above 100 µM; with MDA-N, 30.2 µM; in the test with SF-268 CNS it was 54.6 µM. Moreover, the results for the TGI with U251 CNS and in the test on IGROV1 ovarian were 29.1 µM and 35.9 µM, respectively.

With `COC(=O)CC(NC(=O)OCc1ccccc1)C(=O)NC(CC(=O)OC)C(=O)NC(CC(=O)OC)C(=O)NC(CC(=O)OC)C(=O)NC(CC(=O)OC)C(=O)NC(CC(=O)OC)C(=O)NN` (stereo unspecified) (Cbz-D(OMe)D(OMe)D(OMe)D(OMe)D(OMe)D(OMe)-NHNH2; configuration not given here), the TGI in the test with SK-MEL-28 melanoma, in the test with T-47D breast, with COLO 205 colon, with SK-OV-3 ovarian, in the test with MDA-N and in the test with SF-295 CNS was above 100 µM throughout. Moreover, the TGI in the test on SF-268 CNS, in the test with U251 CNS and with IGROV1 ovarian was above 100 µM in each case.

For `CCNC(=O)C1CCCN1C(=O)C(CCCN=C(N)N)NC(=O)C(CC(C)C)NC(=O)C(Cc1c[nH]c2ccccc12)NC(=O)C(Cc1ccc(O)cc1)NC(=O)C(CO)NC(=O)C(Cc1c[nH]c2ccccc12)NC(=O)C(Cc1cnc[nH]1)NC(=O)C1CCC(=O)N1` (stereo unspecified), the TGI with A498 renal, in the test with COLO 205 colon, in the test on SK-OV-3 ovarian, in the test on MDA-N, in the test with SF-295 CNS and with SF-268 CNS was above 100 µM throughout. Further, the TGI with U251 CNS and in the test with IGROV1 ovarian was above 100 µM throughout.

`COc1ccc2c(c1)CC1=C(O2)c2ccc(OC)cc2OC1`: the TGI was above 100 µM in the test with A498 renal; 37.5 µM in the test on T-47D breast; 33.8 µM with COLO 205 colon; above 100 µM in the test with SK-OV-3 ovarian; 38.4 µM in the test on MDA-N; above 100 µM in the test with SF-295 CNS. The values for the TGI in the test with SF-268 CNS, with U251 CNS and with IGROV1 ovarian were 68.5 µM, 39.9 µM and above 100 µM, respectively.

Take `Cc1cn([C@@H]2C[C@H]2CO)c(=O)[nH]c1=O`: the TGI with SK-MEL-28 melanoma, with A498 renal, with T-47D breast, in the test with COLO 205 colon, with MDA-N and with SF-268 CNS was above 100 µM throughout. Besides, the TGI with U251 CNS and in the test on IGROV1 ovarian was above 100 µM in each case.

For `CCN1CCC(O)(C(C(=O)O)c2ccccc2)CC1` (stereo unspecified), the TGI in the test on SK-MEL-28 melanoma, in the test on A498 renal, in the test on T-47D breast, in the test on COLO 205 colon, in the test with SK-OV-3 ovarian and in the test with SF-295 CNS was above 100 µM each time. Moreover, the TGI with SF-268 CNS, in the test with U251 CNS and in the test on IGROV1 ovarian was above 100 µM throughout.

For `CC1CC(=O)Nc2nc3ccccc3n21` (stereo unspecified), the TGI in the test with A498 renal, with T-47D breast, in the test on COLO 205 colon, with SK-OV-3 ovarian, with MDA-N and in the test on SF-295 CNS was above 100 µM throughout. In addition, the TGI with SF-268 CNS, with U251 CNS and with IGROV1 ovarian was above 100 µM in each case.

In the case of `Cn1c([O-])nc(-n2cc[n+](C)c2)cc1=O`, the TGI in the test with SK-MEL-28 melanoma, in the test with A498 renal, in the test with T-47D breast, in the test with COLO 205 colon, in the test on SK-OV-3 ovarian and with MDA-N was above 100 µM each time. Further, the TGI with SF-268 CNS, with U251 CNS and in the test on IGROV1 ovarian was above 100 µM throughout.

As for `COC(=O)C1=Nc2c(C)nn(-c3ccccc3)c2N=C(c2ccc([N+](=O)[O-])cc2)C1`, the TGI in the test on SK-MEL-28 melanoma, in the test with T-47D breast, with COLO 205 colon, with SK-OV-3 ovarian, with MDA-N and in the test with SF-295 CNS was above 10 µM in each case. In addition, the TGI with SF-268 CNS, in the test with U251 CNS and in the test with IGROV1 ovarian was above 10 µM in each case.

On to `COc1ccc(-c2c(C#N)c(N)nc3c2CCS(=O)(=O)c2ccccc2-3)cc1`, for which the TGI in the test with SK-MEL-28 melanoma, in the test with A498 renal, in the test on T-47D breast, in the test with COLO 205 colon, with SF-268 CNS and in the test with U251 CNS was above 100 µM throughout. The compound further returned a TGI with IGROV1 ovarian above 100 µM.

`Brc1cc2nn(-c3ccccc3)nc2c2nonc12`: the TGI with SK-MEL-28 melanoma, in the test with T-47D breast, in the test with COLO 205 colon, in the test with SK-OV-3 ovarian, with MDA-N and in the test with SF-295 CNS was above 100 µM throughout. For the same compound, the TGI in the test with SF-268 CNS, with U251 CNS and in the test with IGROV1 ovarian was above 100 µM throughout.
